Measurements taken from patent US6806230B1, “Pyrimidine derivatives and herbicides containing them” (Kumiai Chemical Industry Co., Ltd., priority 1999, dated 2004).

How the values were obtained:
Type in all cases: in vivo
monochoria (Mo) = assay: Test Example 1: herbicidal effects by flooded paddy field treatment; parameters: herbicidal effects, Mo (monochoria):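 0-5 growth inhibition grade; 5 = over 90%; 4 = 70-90%; 3 = 50-70%; 2 = 30-50%; 1 = 10-30%; 0 = under 10%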; conditions: for herbicidal effects, Mo (monochoria): dose 100 g active ingredient per 10 ares, examined on the 21st day after treatment, standards of Table 44; for Herbicidal effect index, Mo: dose 100 gai/10a, examined on 21st day after treatment, index 0-5 per Table 44;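 for Herbicidal effect index, Mo: 0-5 growth inhibition grade; 5 = over 90%; 4 = 70-90%; 3 = 50-70%; 2 = 30-50%; 1 = 10-30%; 0 = under 10%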
Experimental: (§1) In a 100 cm^2 plastic pot, paddy field soil was filled and paddled. Then, seeds of barnyard grass (Eo) and monochoria (Mo) were sown, and water was introduced to a depth of 3 cm. Next day, a wettable powder prepared in accordance with Formulation Example 1 was diluted with water and dropwise applied to the water surface. The dose was 100 g of the active ingredient per 10 ares. Thereafter, cultivation was carried out in a green house, and on the 21st day after the treatment, the herbicidal effects were examined in accordance with the standards as identified in Table 44.

barnyard grass (Eo) = assay: as above; parameters: herbicidal effects, Eo (barnyard grass):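 0-5 growth inhibition grade; 5 = over 90%; 4 = 70-90%; 3 = 50-70%; 2 = 30-50%; 1 = 10-30%; 0 = under 10%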; conditions: for herbicidal effects, Eo (barnyard grass): dose 100 g active ingredient per 10 ares, examined on the 21st day after treatment, standards of Table 44; for Herbicidal effect index, Eo: dose 100 gai/10a, examined on 21st day after treatment, index 0-5 per Table 44
Experimental: as §1

barnyard grass (Ec) = assay: Test Example 2: herbicidal effects by upland soil treatment; parameters: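 0-5 growth inhibition grade; 5 = over 90%; 4 = 70-90%; 3 = 50-70%; 2 = 30-50%; 1 = 10-30%; 0 = under 10%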; conditions: dose 100 g active ingredient per 10 ares, examined on the 21st day after treatment
Experimental: In a 80 cm^2 plastic pot, upland soil was filled, and seeds of barnyard grass (Ec) and green foxtail (Se) were sown and covered with soil. A wettable powder prepared in accordance with Formulation Example 1 was diluted with water and uniformly applied to the soil surface by means of a small size spray at a rate of 100 l per 10 ares, so that the dose of the active ingredient would be 100 g per 10 ares. Thereafter, cultivation was carried out in a green house, and on the 21st day after the treatment, the herbicidal effects were examined in accordance with the standards as identified in Table 44.
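Throughout, for Herbicidal effect index, Eo: 0-5 growth inhibition grade; 5 = over 90%; 4 = 70-90%; 3 = 50-70%; 2 = 30-50%; 1 = 10-30%; 0 = under 10%.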

Compound | herbicidal effects, Mo (monochoria) (monochoria (Mo)) | herbicidal effects, Eo (barnyard grass) (barnyard grass (Eo)) | Ec (herbicidal effects, index) (barnyard grass (Ec)) | Herbicidal effect index, Mo (monochoria (Mo)) | Herbicidal effect index, Eo (barnyard grass (Eo))
CCC(C)C(c1cncnc1C(F)(F)F)N(C)C(=O)Cc1ccc(C(F)(F)F)cc1 (mixture of isomers) [1-307] | 5 | 5 | 5 | – | –
CC(NC(=O)N(C)C(c1cncnc1C(F)(F)F)C(C)C)c1ccccc1 (mixture of isomers) [1-535] | 5 | 5 | 5 | – | –
C#CCN(C(=O)C(C)c1ccccc1)C(c1cncnc1CC)C(C)C (mixture of isomers) [1-562] | 5 | 5 | 5 | – | –
COC(OC)c1ncncc1C(C(C)C)N(C)C(=O)C(C)c1ccc(Cl)cc1 (mixture of isomers) [1-625] | – | – | 4 | – | –
CSC(C(=O)N(C)C(c1cncnc1C(F)(F)F)C(C)C)c1ccc(Cl)cc1 (mixture of isomers) [Compound 1-154] | 5 | 5 | – | – | –
CC(C)C(c1cncnc1C(F)(F)F)N(C)C(=O)Oc1ccc(Cl)cc1 (racemic) [1-178] | 4 | 5 | – | – | –
CC(C)C(c1cncnc1C(F)(F)Cl)N(C)C(=O)Oc1ccc(F)cc1 (racemic) [1-184] | 5 | 5 | – | – | –
CC(C)C(c1cncnc1C(F)(F)Cl)N(C)C(=O)Oc1ccc(Cl)cc1 (racemic) [1-185] | 5 | 5 | – | – | –
Cc1ccc(CC(=O)N(C)C(C)c2cncnc2C(C)(C)C)cc1 (racemic) [1-191] | 5 | 5 | – | – | –
CN(C(=O)Cc1ccc(C(F)(F)F)cc1)C(c1cncnc1C(F)(F)F)C(C)(C)C (racemic) [1-305] | 5 | 5 | 5 | – | –
CC(C)c1ncncc1C(C(C)C)N(C)C(=O)Cc1ccc(C(F)(F)F)cc1 (racemic) [1-310] | 5 | 5 | 5 | – | –
CC(C)C(c1cncnc1-c1ccccc1)N(C)C(=O)Cc1ccccc1 (racemic) [1-322] | 5 | 5 | – | – | –
CC(C)C(c1cncnc1-c1ccccc1)N(C)C(=O)Cc1ccc(F)cc1 (racemic) [1-323] | 5 | 5 | 4 | – | –
CC(C)c1ncncc1C(C(C)C)N(C)C(=O)Nc1ccccc1 (racemic) [1-326] | – | – | 4 | – | –
CC(C)c1ncncc1C(C(C)C)N(C)C(=O)N(C)c1ccccc1 (racemic) [1-327] | 5 | 5 | 5 | – | –
CC(C)C(c1cncnc1C(F)(F)F)N(C)C(=O)C(=O)c1ccccc1 (racemic) [1-328] | 5 | 5 | 5 | – | –
CON(C(=O)Cc1ccccc1)C(c1cncnc1C(F)(F)F)C(C)C (racemic) [1-332] | – | – | 5 | – | –
CC(C)C(c1cncnc1C(F)(F)F)N(C)C(=O)C(=O)c1ccc(Cl)cc1 (racemic) [1-335] | 5 | 5 | 5 | – | –
CSCC(c1cncnc1C(F)(F)F)N(C)C(=O)Cc1ccc(F)cc1 (racemic) [1-413] | 5 | 5 | – | – | –
CSCC(c1cncnc1C(F)(F)F)N(C)C(=O)Cc1ccc(Cl)cc1 (racemic) [1-414] | 5 | 5 | 4 | – | –
CSCC(c1cncnc1C(F)(F)F)N(C)C(=O)Cc1ccc(Br)cc1 (racemic) [1-415] | 5 | 5 | – | – | –
CSCC(c1cncnc1C(F)(F)F)N(C)C(=O)Cc1cccc(F)c1 (racemic) [1-420] | 5 | 5 | – | – | –
CSCC(c1cncnc1C(F)(F)F)N(C)C(=O)Cc1ccc(C)cc1 (racemic) [1-421] | 5 | 5 | – | – | –
CSCC(c1cncnc1C(F)(F)F)N(C)C(=O)Cc1ccc(Cl)cc1F (racemic) [1-422] | 5 | 5 | – | – | –
CC(C)c1ncncc1C(C(C)C)N(C)C(=O)N(C)c1ccc(F)cc1 (racemic) [1-429] | 5 | 5 | 5 | – | –
CCc1ncncc1C(C(C)C)N(C)C(=O)Cc1ccc(F)cc1 (racemic) [1-433] | 5 | 5 | 5 | – | –

Compound | herbicidal effects, Mo (monochoria) (monochoria (Mo)) | herbicidal effects, Eo (barnyard grass) (barnyard grass (Eo)) | Ec (herbicidal effects, index) (barnyard grass (Ec)) | Herbicidal effect index, Mo (monochoria (Mo)) | Herbicidal effect index, Eo (barnyard grass (Eo))
CCC(c1cncnc1C(C)C)N(C)C(=O)Cc1ccc(Cl)cc1 (racemic) [1-438] | 5 | 5 | 5 | – | –
CCOC(OCC)C(c1cncnc1C(C)C)N(C)C(=O)OCc1ccccc1 (racemic) [1-458] | 5 | 5 | 5 | – | –
COc1ccc(N(C)C(=O)N(C)C(c2cncnc2C(F)(F)F)C(C)C)cc1 (racemic) [1-460] | 5 | 5 | 5 | – | –
CON=CC(c1cncnc1C(C)C)N(C)C(=O)OCc1ccccc1 (racemic) [1-466] | – | – | 4 | – | –
CCOC(OCC)c1ncncc1C(C(C)C)N(C)C(=O)Cc1ccc(Cl)cc1 (racemic) [1-469] | 5 | 5 | – | – | –
CON=Cc1ncncc1C(C(C)C)N(C)C(=O)OCc1ccccc1 (racemic) [1-471] | – | – | 5 | – | –
CC(C)C(c1cncnc1C=NO)N(C)C(=O)Cc1ccc(F)cc1 (racemic) [1-501] | 5 | 5 | – | – | –
COC(C)(OC)C(c1cncnc1C(C)C)N(C)C(=O)Cc1ccc(F)cc1 (racemic) [1-510] | 5 | 5 | – | – | –
CC(C)c1ncncc1C(C=NO)N(C)C(=O)OCc1ccccc1 (racemic) [1-531] | – | – | 4 | – | –
C#CCN(C(=O)Cc1ccccc1)C(c1cncnc1CCC)C(C)C (racemic) [1-616] | – | – | 5 | – | –
C#CCN(C(=O)Cc1ccc(Cl)cc1)C(c1cncnc1CCC)C(C)C (racemic) [1-618] | – | – | 5 | – | –
C#CCN(C(=O)Cc1ccc(F)cc1)C(c1cncnc1C(F)(F)F)C(C)(C)C (racemic) [1-620] | – | – | 5 | – | –
C#CCN(C(=O)Cc1ccccc1)C(c1cncnc1C(C)C)C(C)C (racemic) [1-621] | – | – | 5 | – | –
C#CCN(C(=O)Cc1ccc(Cl)cc1)C(c1cncnc1C(C)C)C(C)C (racemic) [1-623] | – | – | 5 | – | –
Cc1ccc(OC(=O)N(C)C(c2cncnc2C(F)(F)Cl)C(C)C)cc1 (racemic) [1-636] | – | – | 4 | – | –
COc1ccc(OC(=O)N(C)C(c2cncnc2C(F)(F)Cl)C(C)C)cc1 (racemic) [1-637] | 5 | 5 | – | – | –
CCc1ncncc1C(CC)N(C)C(=O)Oc1ccc(Cl)cc1 (racemic) [1-646] | – | – | 4 | – | –
CC(C)C(c1cncnc1C(F)(F)F)N(C)C(=O)Cc1ccncc1 (racemic) [2-5] | 5 | 5 | – | – | –
CC(C)C(c1cncnc1C(F)(F)F)N(C)C(=O)Cn1cc(Br)cn1 (racemic) [2-41] | 5 | 5 | – | – | –
CC(C)C(c1cncnc1C(F)(F)F)N(C)C(=O)COc1nnc(C(F)(F)F)s1 (racemic) [2-47] | – | – | 4 | – | –
CC(C)C(c1cncnc1C(F)(F)Cl)N(C)C(=O)Oc1cccc2ccccc12 (racemic) [2-80] | 4 | 5 | – | – | –
CC(C)C(c1cncnc1C(F)(F)Cl)N(C)C(=O)Oc1ccccc1 (racemic) [Compound 1-19] | – | – | – | 5 | 5
CN(C(=O)Cc1ccc(Cl)cc1)C(c1cncnc1C(F)(F)Cl)C1CC1 (racemic) [Compound 1-94] | – | – | – | 5 | 5
CN(C(=O)Cc1ccccc1F)C(c1cncnc1C(F)(F)F)C1CCCC1 (racemic) [Compound 1-156] | 5 | 5 | – | – | –
CCOC(=O)c1ncncc1C(C(C)C)N(C)C(=O)C(C)c1ccc(Cl)cc1 (single isomer, unassigned) [1-595] | 5 | 5 | – | – | –
CC(C)C(c1cncnc1C=O)N(C)C(=O)Cc1ccc(F)cc1 (centres unmarked) [Compound 1-523, N-[1-(4-formylpyrimidin-5-yl)-2-methylpropyl]-N-methyl-4-fluorophenylacetamide] | – | – | 4 | – | –
